Here are results for 1 compound from patent publication US8552059B2, “Treatment of ischemic episodes and cerebroprotection through misoprostol” (The Board of Trustees of the Leland Stanford Junior …, priority 2009, dated 2013).

In this experiment the test system is murine middle cerebral artery occlusion-reperfusion (MCAO-RP) model of transient focal ischemia. The experiment in a line: Middle cerebral artery occlusion-reperfusion (MCAO-RP), 90 min MCAO, misoprostol. The conditions noted are these: p<0.05. Format: in vivo, mouse.

Experimental: Focal cerebral ischemia was induced by 90 minutes of reversible right middle cerebral artery occlusion (MCAO) under isofluorane anesthesia followed by 22.5 hours or 72 hours of reperfusion and terminal histopathology, as previously described (McCullough et al., 2004). […] Mice were given 3 subcutaneous injections of either vehicle (hydroxypropyl-methyl cellulose; HPMC) or 1 mg/kg misoprostol in HPMC (1:100 misoprostol:HPMC; Pfizer, Groton, Conn.) (Best et al., 1995) either at onset of MCAO or 2 hours after MCAO, followed by two subsequent doses 6 and 12 hours later. In the first experiment, misoprostol was given at onset of MCAO, with the two subsequent injections given at 6 hours and at 12 hours post MCAO, and brains were analyzed 22.5 hours later. In the second experiment, treatment with the initial dose of misoprostol was delayed two hours after the onset of MCAO, and two subsequent doses were then administered at 8 hours and 14 hours after MCAO and brains were analyzed at 22.5 hours later. In the third experiment, a delayed time point was tested, and misoprostol was given 2 hours after MCAO and again at 6 and 12 hours; brains were examined at 72 hours. […] A fifth cohort of EP3−/− and +/+ mice underwent treatment with either vehicle or misoprostol at MCAO, with subsequent administration of misoprostol or vehicle at 6 and 12 hours post MCAO and brain examination 22.5 hours later.

With `CCCCC(C)(O)C/C=C/[C@H]1[C@H](O)CC(=O)[C@@H]1CCCCCCC(=O)OC` (mixture of isomers) [misoprostol], the Neurological scores runs as follows: (1 mg/kg s.c. 2 h after MCAO, again at 6 and 12 h, 72 h, comparison value 2.6+/−0.24) 1.0+/−0.22; (1 mg/kg s.c. 2 h after MCAO, then at 8 and 14 h, 24 h, comparison value 2.6+/−0.3) 1.7+/−0.3; (1 mg/kg s.c. at onset of 90 min MCAO, then at 6 and 12 h, 24 h, comparison value 2.4+/−0.2) 1.8+/−0.2.
